Several values for one entry are separate records, joined by “and”; a condition that tells them apart may be missing. Equal values may be shown once. Where a SMILES comes first, the peptide text is derived from it.
System: lipase
Assay: Lipase/lipolysis assay (EnzChek Lipase Substrate, quenched BODIPY-fatty acid conjugate) on stored human milk; for Lipase (RFU): test concentration or dose not given here

| Compound | Lipase (RFU) | Hit in lipase inhibition screen (in words) |
| --- | --- | --- |
| CC(C)=CCC[C@](C)(O[C@@H]1O[C@H](CO[C@@H]2OC[C@H](O)[C@H](O)[C@H]2O)[C@@H](O)[C@H](O)[C@H]1O)[C@H]1CC[C@]2(C)[C@@H]1[C@H](O)C[C@@H]1[C@@]3(C)CC[C@H](O[C@@H]4O[C@H](CO)[C@@H](O)[C@H](O)[C@H]4O[C@@H]4O[C@H](CO)[C@@H](O)[C@H](O)[C@H]4O)C(C)(C)[C@@H]3CC[C@]12C [Ginsenoside Rb2] | 872.7793 RFU | – |
| CC(C)=CCC[C@](C)(O[C@@H]1O[C@H](CO)[C@@H](O)[C@H](O)[C@H]1O)[C@H]1CC[C@]2(C)[C@@H]1[C@H](O)C[C@@H]1[C@@]3(C)CC[C@H](O)C(C)(C)[C@@H]3[C@@H](O[C@@H]3O[C@H](CO)[C@@H](O)[C@H](O)[C@H]3O)C[C@]12C [Ginsenoside Rg1] | 1026.433 RFU | – |
| CC(C)=CCC[C@](C)(O)[C@H]1CC[C@]2(C)[C@@H]1[C@H](O)C[C@@H]1[C@@]3(C)CC[C@H](O)C(C)(C)[C@@H]3[C@@H](O[C@@H]3O[C@H](CO)[C@@H](O)[C@H](O)[C@H]3O[C@@H]3O[C@@H](C)[C@H](O)[C@@H](O)[C@H]3O)C[C@]12C [Ginsenoside Rg2] | 1144.609 RFU | – |
| C=C(CCC=C(C)C)[C@H]1CC[C@]2(C)[C@@H]1[C@H](O)C[C@@H]1[C@@]3(C)CC[C@H](O)C(C)(C)[C@@H]3[C@@H](O[C@@H]3O[C@H](CO)[C@@H](O)[C@H](O)[C@H]3O[C@@H]3O[C@@H](C)[C@H](O)[C@@H](O)[C@H]3O)C[C@]12C [Ginsenoside Rg6] | 737.5989 RFU | – |
| CC(C)=CCC[C@](C)(O)[C@H]1CC[C@]2(C)[C@@H]1[C@H](O)C[C@@H]1[C@@]3(C)CC[C@H](O)C(C)(C)[C@@H]3[C@@H](O[C@@H]3O[C@H](CO)[C@@H](O)[C@H](O)[C@H]3O)C[C@]12C [Ginsenoside Rh1] | 665.2277 RFU | – |
| CC1(C)CC[C@]2(C(=O)O[C@@H]3O[C@H](CO)[C@@H](O)[C@H](O)[C@H]3O)CC[C@]3(C)C(=CC[C@@H]4[C@@]5(C)CC[C@H](O[C@@H]6O[C@H](C(=O)O)[C@@H](O)[C@H](O)[C@H]6O[C@@H]6O[C@H](CO)[C@@H](O)[C@H](O)[C@H]6O)C(C)(C)[C@@H]5CC[C@]43C)[C@@H]2C1 [Ginsenoside Ro] | 1082.912 RFU | – |
| COc1cc2c(cc1OC)-c1c(OC)c(OC)cc3c1[C@H](C2)N(C)CC3 [Glaucine] | 922.5844 RFU | – |
| O=C([O-])[C@H](O)[C@@H](O)[C@H](O)[C@H](O)CO.[Na+] [Gluconate (sodium)] | 1019.914 RFU | – |
| C[S+]([O-])CCCC/C(=N\OS(=O)(=O)O)S[C@@H]1O[C@H](CO)[C@@H](O)[C@H](O)[C@H]1O (stereo partly shown) [Glucoraphanin] | 983.9092 RFU | – |
| CCCCCCCCCCCCC/C=C/[C@@H](O)[C@@H](N)CO[C@@H]1O[C@H](CO)[C@@H](O)[C@H](O)[C@H]1O [Glucosylsphingosine] | 955.6283 RFU | – |
| O=C(O)CCCC(=O)O [Glutaric acid] | 944.8681 RFU | – |
| COc1cc2c(=O)c(-c3ccc(O)cc3)coc2cc1O[C@@H]1O[C@H](CO)[C@@H](O)[C@H](O)[C@H]1O [Glycitin] | 799.4163 RFU | – |
| C[C@H](CCC(=O)NCC(=O)O)[C@H]1CC[C@H]2[C@@H]3CC[C@@H]4C[C@H](O)CC[C@]4(C)[C@H]3CC[C@]12C [Glycolithocholic acid] | 1103.978 RFU | – |
| NCC(=O)N[C@@H](CC(=O)O)C(=O)O [Glycyl-L-Aspartic] (H-Gly-Asp-OH) | 903.5873 RFU | – |
| NCC(=O)N[C@@H](CCC(=O)O)C(=O)O [Glycyl-L-Glutamic Acid] (H-Gly-Glu-OH) | 846.2286 RFU | – |
| NCC(=O)N1CCC[C@H]1C(=O)O [Glycyl-L-Proline] (H-Gly-Pro-OH) | 318.8964 RFU | significantly inhibited lipase activity |
| CC(C)C[C@H](NC(=O)CN)C(=O)O [Glycyl-L-leucine] | 829.1827 RFU | – |
| COc1cc([C@H]2c3cc(O)c(OC)cc3C[C@@H](C)[C@@H]2C)ccc1O [Guaiacin] | 808.3575 RFU | – |
| C[C@H]1CC[C@@H](C(C)(C)O)CC2=C1CC[C@@H]2C [Guaiol] | 919.8918 RFU | – |

| Compound | Lipase (RFU) | Hit in lipase inhibition screen (in words) |
| --- | --- | --- |
| Nc1nc2nc[nH]c2c(=O)[nH]1 [Guanine] | 909.1174 RFU | – |
| Nc1nc2c(ncn2[C@@H]2O[C@@H]3COP(=O)(O)O[C@H]3[C@H]2O)c(=O)[nH]1 [Guanosine-3′,5′-cyclic monophosphate] | 813.7484 RFU and 1141.322 RFU | – |
| CC[C@H](N)C(=O)O [H-Abu-OH] | 993.6587 RFU | – |
| NCC(=O)N1CCC[C@H]1C(=O)O [H-Gly-Pro-OH] (H-Gly-Pro-OH) | 952.5324 RFU | – |
| NC(N)=NCCCC[C@H](N)C(=O)O [H-HoArg-OH] | 745.4822 RFU | – |
| N[C@@H](Cc1ccc(O)c(I)c1)C(=O)O [H-Tyr(3-I)-OH] | 847.3153 RFU | – |
| COC(=O)C1=CO[C@@H](O[C@@H]2O[C@H](CO)[C@@H](O)[C@H](O)[C@H]2O)[C@@H]2[C@@H](C)CC(=O)[C@]12O [Hastatoside] | 738.976 RFU | – |
| C[C@@H]1O[C@@H](O[C@H]2[C@H](O[C@H]3CC[C@]4(C)[C@H]5CC=C6[C@@H]7CC(C)(C)CC[C@]7(C(=O)O[C@@H]7O[C@H](CO[C@@H]8O[C@H](CO)[C@@H](O[C@@H]9O[C@@H](C)[C@H](O)[C@@H](O)[C@H]9O)[C@H](O)[C@H]8O)[C@@H](O)[C@H](O)[C@H]7O)CC[C@@]6(C)[C@]5(C)CC[C@H]4C3(C)C)OC[C@H](O)[C@@H]2O)[C@H](O)[C@H](O)[C@H]1O [Hederasaponin B] | 619.4985 RFU | – |
| COc1ccc([C@@H]2CC(=O)c3c(O)cc(O[C@@H]4O[C@H](CO[C@@H]5O[C@@H](C)[C@H](O)[C@@H](O)[C@H]5O)[C@@H](O)[C@H](O)[C@H]4O)cc3O2)cc1O [Hesperidin] | 595.5734 RFU and 766.088 RFU | – |
| COc1c(O)cc2oc(-c3ccc(O)cc3)cc(=O)c2c1O [Hispidulin] | 914.8964 RFU | – |
| Cl.Cl.NCCc1c[nH]cn1 [Histamine (dihydrochloride)] | 1022.007 RFU | – |
| COc1cc(CC(=O)O)ccc1O [Homovanillic acid] | 934.4466 RFU | – |
| CN(C)CCc1ccc(O)cc1 [Hordenine] | 1057.467 RFU | – |
| C/C=C/C=C/C=C\CC/C=C/C(=O)NCC(C)(C)O [Hydroxy-α-sanshool] | 984.0163 RFU | – |
| COc1cc(O)c2c(=O)cc(-c3ccc(O)c(O)c3)oc2c1 [Hydroxygenkwanin] | 874.9866 RFU | – |
| O=C(O)C(O)Cc1ccc(O)cc1 (stereo not shown) [Hydroxyphenyllactic acid] | 914.2115 RFU | – |
| NCCS(=O)O [Hypotaurine] | 1147.047 RFU and 798.4494 RFU | – |
| Cl.O=C(O)Cc1cnc[nH]1 [Imidazoleacetic acid (hydrochloride)] | 807.4109 RFU | – |
| O=C1/C(=C2\Nc3ccc(S(=O)(=O)[O-])cc3C2=O)Nc2ccc(S(=O)(=O)[O-])cc21.[Na+].[Na+] [Indigo carmine] | 862.5624 RFU | – |

| Compound | Lipase (RFU) | Hit in lipase inhibition screen (in words) |
| --- | --- | --- |
| OCc1c[nH]c2ccccc12 [Indole-3-carbinol] | 1082.489 RFU | – |
| O=C(O)C(O)Cc1c[nH]c2ccccc12 (stereo not shown) [Indolelactic acid] | 641.0066 RFU | – |
| C[C@H](CCC(=O)O)[C@H]1CC[C@H]2[C@@H]3CC[C@H]4C[C@@H](O)CC[C@]4(C)[C@H]3CC[C@]12C [Isoallolithocholic acid] | 881.405 RFU | – |
| CC(C)C(=O)O[C@H](CC(=O)O)C[N+](C)(C)C.[Cl-] [Isobutyryl-L-carnitine (chloride)] | 1069.653 RFU | – |
| O=C(/C=C/c1ccc(O)c(O)c1)O[C@@H]1CC(O)(C(=O)O)C[C@@H](OC(=O)/C=C/c2ccc(O)c(O)c2)C1O (stereo partly shown) [Isochlorogenic acid A] | 827.6093 RFU | – |
| COc1ccc2c(=O)c(-c3ccc(O)cc3)coc2c1 [Isoformononetin] | 1355.098 RFU | – |
| COc1cc2ccc(=O)oc2c(OC)c1O [Isofraxidin] | 929.2612 RFU | – |
| COc1ccc(CC(=O)O)cc1O [Isohomovanillic acid] | 1060.172 RFU | – |
| OC[C@H]1O[C@H](OC[C@H]2OC(O)[C@H](O)[C@@H](O)[C@@H]2O)[C@H](O)[C@@H](O)[C@@H]1O (stereo partly shown) [Isomaltose] | 1074.051 RFU | – |
| COc1ccc([C@@H]2CC(=O)c3c(O)cc(O[C@@H]4O[C@H](CO)[C@@H](O)[C@H](O)[C@H]4O)cc3O2)cc1 [Isosakuranin] | 864.5248 RFU | – |
| O=c1cc(-c2ccc(O)cc2)oc2c([C@@H]3O[C@H](CO)[C@@H](O)[C@H](O)[C@H]3O)c(O)c([C@@H]3OC[C@H](O)[C@H](O)[C@H]3O)c(O)c12 [Isoschaftoside] | 949.6414 RFU | – |
| COc1cc(C2Oc3ccc([C@H]4Oc5cc(O)cc(O)c5C(=O)[C@@H]4O)cc3OC2CO)ccc1O (stereo partly shown) [Isosilybin] | 921.7702 RFU | – |
| CC(C)CC(=O)O[C@H](CC(=O)[O-])C[N+](C)(C)C [Isovalerylcarnitine] | 737.2804 RFU | – |
| O=c1cc(-c2ccc(O)cc2)oc2cc(O)c([C@@H]3O[C@H](CO)[C@@H](O)[C@H](O)[C@H]3O[C@@H]3OC[C@H](O)[C@H](O)[C@H]3O)c(O)c12 [Isovitexin 2″-O-arabinoside] | 1033.269 RFU | – |
| C=C(CC(=O)O)C(=O)O [Itaconic Acid] | 944.0433 RFU | – |
| COc1cc(-c2cc(=O)c3c(O)c(OC)c(O)cc3o2)ccc1O [Jaceosidin] | 614.7008 RFU | – |
| CC(C)=C[C@H]1C[C@](C)(O)[C@@H]2[C@H]3CC[C@@H]4[C@@]5(C)CC[C@H](O[C@@H]6OC[C@H](O)[C@H](O[C@@H]7O[C@H](CO)[C@@H](O)[C@H](O)[C@H]7O[C@@H]7OC[C@@H](O)[C@H](O)[C@H]7O)[C@H]6O[C@@H]6O[C@@H](C)[C@H](O)[C@@H](O)[C@H]6O)C(C)(C)[C@@H]5CC[C@@]4(C)[C@@]34CO[C@@]2(C4)O1 [Jujuboside B] | 877.6814 RFU | – |
| O=c1c(O[C@@H]2O[C@H](CO[C@@H]3O[C@H](CO)[C@@H](O)[C@H](O)[C@H]3O)[C@@H](O)[C@H](O)[C@H]2O)c(-c2ccc(O)cc2)oc2cc(O)cc(O)c12 [Kaempferol 3-O-gentiobioside] | 1150.858 RFU | – |
| O=c1c(O[C@@H]2O[C@H](CO)[C@@H](O)[C@H](O)[C@H]2O[C@@H]2O[C@H](CO)[C@@H](O)[C@H](O)[C@H]2O)c(-c2ccc(O)cc2)oc2cc(O)cc(O)c12 [Kaempferol 3-O-sophoroside] | 867.3846 RFU | – |

Reference: patent US12507703B2, “Methods, devices and compositions for preserving human milk” (The Trustees of Princeton University, priority 2023, dated 2025)
